Test results as given in patent publication US8993527B2, “Methods, compositions, and formulations for preventing or reducing adverse effects in a patient” (Pericor Therapeutics, Inc., priority 2005, dated 2015).
Where a name gives a salt, the structure may show the parent alone.

Tests used:
[1] = molecular target: T1, NBTI-specific adenosine transport site (UniProt O54698); assay: [3H]-NBTI binding assay; details: read-out: ED50 (50% displacement of bound [3H]-NBTI); 0.5 mg neuronal membrane protein, 0.5 nM [3H]-NBTI, 30 minutes
T1 sequence (O54698 1-457): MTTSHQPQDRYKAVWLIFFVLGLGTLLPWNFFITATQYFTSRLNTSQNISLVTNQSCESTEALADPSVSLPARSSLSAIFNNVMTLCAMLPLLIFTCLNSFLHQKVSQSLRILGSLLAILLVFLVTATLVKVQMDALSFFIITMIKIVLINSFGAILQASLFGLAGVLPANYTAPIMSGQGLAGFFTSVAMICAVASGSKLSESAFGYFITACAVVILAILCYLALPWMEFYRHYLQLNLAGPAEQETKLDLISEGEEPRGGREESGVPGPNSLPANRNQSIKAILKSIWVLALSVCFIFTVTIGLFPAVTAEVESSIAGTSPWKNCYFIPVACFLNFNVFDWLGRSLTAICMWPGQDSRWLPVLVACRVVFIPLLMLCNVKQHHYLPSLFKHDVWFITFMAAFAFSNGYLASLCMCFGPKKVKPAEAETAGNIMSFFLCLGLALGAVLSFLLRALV
Procedure: Increasing concentrations of the test compounds were incubated for 30 minutes with 0.5 mg neuronal membrane protein together with 0.5 nM [^3 H]-NBTI in a Tris buffer (pH 7.4) at room temperature. The assays were quenched and membranes collected by rapid filtration. Filters were then solubilized and radioactivity determined by scintillation counting.

[2] = system: longitudinal muscle from the guinea pig ileum; assay: Inhibition of stimulated contraction in isolated ileum; details: electrically stimulated guinea pig ileum muscle
Description: These are detailed in Table II.

[3] = system: coronary endothelial cells; assay: Inhibition of adenosine utilization in cell culture; assay type: cell-based; details: 1 μM [3H] adenosine, 15 minutes; for inhibition at 5 µM / inhibition at 50 µM: Endothelial cell
Procedure: In this assay, endothelial cells were incubated with 5 μM or 50 μM of the test compound together with 1 μM [^3H] adenosine for 15 minutes. Inhibition of adenosine utilization was determined by measuring the concentration of extracellular adenosine by scintillation counting following separation by thin layer chromatography (TLC).

[4] = system: platelet aggregation in human whole blood; assay: Inhibition of platelet aggregation in human whole blood; assay type: cell-based; details: 10 minutes at 37° C., 10 µM adenosine added, ADP (6-25 μM)
Procedure: Whole blood was drawn from healthy donors and collected in 0.1 vol. of sodium citrate to prevent coagulation. Platelet aggregation was measured by the impedance technique using a Whole Blood Aggregometer. The test compounds were incubated in whole blood for 10 minutes at 37° C. and 10 µM adenosine was added 5 minutes before eliciting aggregation. Aggregation was induced by addition of ADP (6-25 μM) at the minimum concentration inducing full aggregation in untreated controls.

Row | EC50 [1] | Compound | inhibition at 5 µM ([3]; 5 μM) | inhibition at 50 µM ([3]; 50 μM) | further results
1 | 17 µM | 5-Amino-4-[1-[4-(4-nitrophenyl)]piperazinocarbamoyl]-1-1-β-D-ribofurano sylimidazole [Compound No. 60 (1-508)] | – | – | –
2 | – | CN(C)c1ccc(CNC(=O)c2ncn([C@@H]3O[C@H](CO)[C@@H](O)[C@H]3O)c2N)cc1 [41 (1-396), 5-Amino-1-β-D-ribofuranosylimidazole-4-N(4-dimethylaminobenzyl)-carboxamide hydrochloride] | – | – | IC50 [2]: 100 µM
3 | – | Nc1c(C(=O)NC[C@H](O)c2ccc(O)c(O)c2)ncn1[C@@H]1O[C@H](CO)[C@@H](O)[C@H]1O [42 (1-431), (R)-5-Amino-1-β-D-ribofuranosylimidazole-4-N-[2-hydroxy-2-(3,4-dihydroxyphenyl)ethyl]carboxamide] | – | – | IC50 [2]: 6 µM
4 | 8 µM | Nc1c(C(=O)NCc2ccc([N+](=O)[O-])cc2)ncn1C1OC(CI)C(O)C1O [46 (1-445), 5-Amino-1-(5-iodo-5-deoxy-β-D-ribofuranosyl)imidazole-4-N-[(4-nitrophenyl)methyl]carboxamide] | 19 ± 4% | 30 ± 9% | –
5 | 7 µM | CC(NC(=O)c1ncn(C2OC(CO)C(O)C2O)c1N)c1ccc([N+](=O)[O-])cc1 [49 (1-453), (R)-5-Amino-1-β-D-ribofuranosylimidazole 4-N-[1-4-nitrophenyl)ethyl]carboxamide] | 30 ± 4% | 33 ± 8% | –
6 | 28 µM | CC(NC(=O)c1ncn(C2OC(CO)C(O)C2O)c1N)c1ccc([N+](=O)[O-])cc1 [50 (1-459), (S)-5-Amino-1-β-D-ribofuranosylimidazole-4-N-[(4-nitrophenyl)ethyl]carboxamide] | – | – | –
7 | 3 µM | Nc1c(C(=O)NCc2ccc([N+](=O)[O-])cc2)ncn1C1OC(CO)C(O)C1O [Compound No. 23 (1-343), 5-Amino-1-β-D-ribofuranosyl-imidazole-4-N-[(4-nitrophenyl)methyl]carboxamide] | 27 ± 4% | 63 ± 2% | IC50 ([2]; Cavia porcellus): 3 µM; IC50 ([4]; Homo sapiens, Platelet, 10 min): 38 µM
8 | – | Nc1c(C(=O)NCc2cccc(Cl)c2)ncn1[C@H]1O[C@H](CO)[C@@H](O)[C@H]1O [Compound No. 24 (1-354), 5-Amino-1-α-D-ribofuranosylimidazole-4-N-[(3-chlorophenyl)methyl]carboxamide] | – | – | IC50 [2]: 400 µM
9 | 72 µM | Nc1c(C(=O)NCc2ccc(Cl)cc2Cl)ncn1C1OC(CO)C(O)C1O [Compound No. 25 (1-360), 5-amino-1-β-D-ribofuranosylimidazole-4-N-[(2,4-dichlorophenyl)methyl]carboxamide] | 21 ± 1% | 56 ± 2% | IC50 ([2]; Cavia porcellus): 20 µM
10 | – | NC(=O)c1ncn([C@@H]2O[C@H](CCl)[C@@H](O)[C@H]2O)c1N [Compound No. 26 (1-332), 5-amino-1-(5-chloro-5-deoxy-β-D-ribofuranosyl)imidazole-4-carboxamide] | – | – | IC50 ([2]; Cavia porcellus): 200 µM
11 | 15 µM | Nc1c(C(=O)NCc2cccc([N+](=O)[O-])c2)ncn1C1OC(CO)C(O)C1O [Compound No. 28 (1-348), 5-amino-1-β-D-ribofuranosylimidazole-4-N-[(3-nitrophenyl)methyl]carboxamide] | 17 ± 3% | 47 ± 2% | IC50 ([4]; Homo sapiens, Platelet, 10 min): 180 µM
12 | 225 µM | Cc1ccc(CNC(=O)c2ncn(C3OC(CO)C(O)C3O)c2N)cc1 [Compound No. 30 (1-388), 5-amino-1-β-D-ribofuranosylimidazole-4-N-[(4-methylphenyl)methyl]carboxamide] | 21 ± 1% | 49 ± 4% | IC50 ([2]; Cavia porcellus): 20 µM
13 | – | Nc1c(C(=O)NCc2cccc(Cl)c2)ncn1C1OC(CO)C(O)C1O [Compound No. 35 (1-355), 5-amino-1-β-D-ribofuranosyl-imidazole-4-N[(3-chlorophenyl)methyl]carboxamide] | – | – | IC50 ([2]; Cavia porcellus): 60 µM
14 | 600 µM | COc1ccc(CNC(=O)c2ncn(C3OC(CO)C(O)C3O)c2N)cc1 [Compound No. 39 (1-390), 5-Amino-1-β-D-ribofuranosyl-imidazole-4-N-[p-methoxybenzyl]carboxamide] | 7 ± 4% | 29 ± 1% | IC50 ([2]; Cavia porcellus): 500 µM
15 | 71 µM | NC(=O)c1nc(Sc2ccccc2)n([C@@H]2O[C@H](CO)[C@@H](O)[C@H]2O)c1N [Compound No. 43 (1-432), 5-Amino-2-thiophenyl-1-β-D-ribofuranosylimidazole-4-carboxamide] | – | – | IC50 [2]: 200 µM; IC50 [4]: 620 µM
16 | – | Nc1c(C(=O)NCc2cccc(I)c2)ncn1C1OC(CO)C(O)C1O [Compound No. 44 (1-434), 5-Amino 1-β-D-ribofuranosyl-imidazole-4-N-[(3-iodophenyl)methyl]carboxamide] | – | – | IC50 ([2]; Cavia porcellus): 20 µM
17 | 90 µM | Nc1c(C(=O)NC2CC3CCC2C3)ncn1C1OC(CO)C(O)C1O [Compound No. 45 (1-438), 5-Amino-1-β-D-ribofuranosylimidazole-4-N-(2-endo-norbornyl)carboxamide] | – | – | IC50 ([2]; Cavia porcellus): 100 µM
18 | 22 µM | Nc1c(C(=O)N2CCc3ccccc32)ncn1C1OC(CO)C(O)C1O [Compound No. 48 (1-452), 5-Amino-1-β-D-ribofuranosyl-imidazole-4-N-indolinylcarboxamide] | 23 ± 3% | 25 ± 2% | –
19 | – | [N-]=[N+]=NCC1OC(n2cnc(C(=O)NCc3ccc(Cl)cc3)c2N)C(O)C1O (stereo not shown) [Compound No. 52 (1-467)] | – | – | IC50 ([4]; Homo sapiens, Platelet, 10 min): 480 µM
20 | 28 µM | CSC[C@H]1O[C@@H](n2cnc(C(N)=O)c2N)[C@H](O)[C@@H]1O [Compound No. 54 (1-483), 5-Amino-1-(5-deoxy-5-methylthio-β-D-ribofuranosyl)imidazole-4-carboxamide] | – | – | –
21 | 32 µM | Nc1c(C(=O)NCc2ccc(Br)cc2)ncn1C1OC(CO)C(O)C1O [Compound No. 56 (1-487), 5-Amino 1-β-D-ribofuranosyl-imidazole-4-N-[(4-bromophenyl)methyl]carboxamide] | 55 ± 7% | 65 ± 9% | IC50 ([4]; Homo sapiens, Platelet, 10 min): 75 µM
22 | 80 µM | Nc1c(C(=O)Nc2ccc([N+](=O)[O-])cc2)ncn1C1OC(CO)C(O)C1O [Compound No. 58 (1-489), 5-Amino-1-β-D-ribofuranosylimidazole-4-N-(4-nitrophenyl)carboxamide] | – | – | –
23 | 2 µM | Nc1c(C(=O)NCCc2ccc([N+](=O)[O-])cc2)ncn1C1OC(CO)C(O)C1O [Compound No. 59 (1-506), 5-Amino-1-β-D-ribofuranosyl-imidazole-4-N→2-(4-nitrophenyl)ethyl carboxamide] | – | – | IC50 ([4]; Homo sapiens, Platelet, 10 min): 70 µM
24 | – | [N-]=[N+]=NC[C@H]1O[C@@H](n2cnc(C(=O)NCc3ccc([N+](=O)[O-])cc3)c2N)[C@H](O)[C@@H]1O [Compound No. 71 (1-562)] | – | – | Inhibition of Adenosine Utilization (%) ([3]; 5 μM): 10 ± 3%; Inhibition of Adenosine Utilization (%) ([3]; 50 μM): 31 ± 11%; IC50 [4]: 40 µM
25 | – | NC[C@H]1O[C@@H](n2cnc(C(=O)NCc3ccc([N+](=O)[O-])cc3)c2N)[C@H](O)[C@@H]1O [Compound No. 72 (1-563)] | – | – | IC50 [4]: 300 µM
26 | – | Nc1c(C(=O)NCCCc2ccc([N+](=O)[O-])cc2)ncn1[C@@H]1O[C@H](CO)[C@@H](O)[C@H]1O [Compound No. 73 (1-566)] | – | – | Inhibition of Adenosine Utilization (%) ([3]; 5 μM): 16 ± 0%; Inhibition of Adenosine Utilization (%) ([3]; 50 μM): 33 ± 9%
27 | – | Nc1c(C(=O)NCc2ccc(S(N)(=O)=O)cc2)ncn1[C@@H]1O[C@H](CO)[C@@H](O)[C@H]1O [Compound No. 75 (1-577), 5-Amino-1-β-D-ribofuranosylimidazole-4-N-[(4-sulfamoylphenyl)methyl]carboxamide] | – | – | Inhibition of Adenosine Utilization (%) ([3]; 5 μM): 8 ± 0%; Inhibition of Adenosine Utilization (%) ([3]; 50 μM): 30 ± 3%

Row | Compound | EC50 [1] | inhibition at 5 µM ([3]; 5 μM) | inhibition at 50 µM ([3]; 50 μM) | further results
28 | C[C@H]1O[C@@H](n2cnc(C(=O)NCc3ccc(Cl)cc3)c2N)[C@H](O)[C@@H]1O [Compound No. 61 (1-509), 5-Amino-1-(5-deoxy-β-D-ribofuranosyl)imidazole-4N-[(4-chlorophenyl)methyl]carboxamide] | 32 µM | – | – | Inhibition of Adenosine Utilization (%) ([3]; 5 μM): 37 ± 28%; Inhibition of Adenosine Utilization (%) ([3]; 50 μM): 72 ± 5%; IC50 [4]: 171 µM
